Tests used:
[1] = Recrystallization of benzocaine from the formulation after cooling to room temperature; format: physicochemical
Procedure: The formulation is prepared by first mixing the topical anesthetic, solubilizer, homopolymers and copolymers together and heating the mixture at about 80° C. while stirring. The perfume oil, skin conditioning oils and water or a thickening agent, depending on the type of composition desired, can be added after dissolution of all of the above components being heated has occurred.
This overall recrystallization problem is easily remedied by reheating the mixture either in a hot water bath or briefly in a microwave oven (<10 seconds). […] This is an improvement over the known art.
The following components were dissolved by stirring while heating in a water bath at 80° C. All of the following protocols are actual experiments developed for the production of the formulation.
After the above components were dissolved, the following components were added to the resulting solution while still heating.
The solution was then cooled to room temperature.

scalp or skin = assay: Desensitization of the scalp or skin, pain relief in hair treatment and manipulation procedures; format: in vivo; conditions: benzocaine concentration approximately 20 to 30 weight percent of the formulation

CCOC(=O)c1ccc(N)cc1 [benzocaine, ethyl-p-aminobenzoate]
recrystallization ([1]; about 20 weight percent benzocaine, after 24 hours): very small amount of recrystallization may be observed | benzocaine staying in solution ([1]; about 20 weight percent benzocaine, formulation cooled to room temperature): stays in solution | re-solubility of the reheated mixture ([1]; about 22 to about 30 weight percent benzocaine, reheated in hot water bath or microwave oven (<10 seconds)): Total re-solubility is achieved | precipitation in the mixture ([1]; about 22 to about 30 weight percent benzocaine, several hours after cooling to room temperature): some precipitation is observed | relief of pain associated with hair treatment and manipulation procedures (scalp or skin): effective at relieving the pain
